Test results taken from patent US20150087004A1, “Microfabricated 3D Cell Culture System” (The Trustees of the University of Pennsylvania, priority 2012, published 2015).

System: Human umbilical vein endothelial cells (HUVECs)
Experiment: Pro-angiogenic factor screening: directed invasion and sprouting from endothelialized parent vessel in 3D cell culture device
Type: cell-based
Conditions: for EC invasion into the matrix (single cell or collective cell invasion): factor added individually to source channel, over four days, 75 ng/mL (S1P 500 nM); for mode of cell migration / sprouting response: factor or cocktail in source channel, gradient across collagen matrix
From the text: Examination the processes of angiogenic invasion and sprouting from an existing vessel in accordance with the disclosed subject matter will be described, with reference to FIG. 11A-D through FIG. 14A-F, for purpose of illustration and not limitation. Generally, a device in accordance with an embodiment of the disclosed subject matter can be prepared with an endothelium lining a cylindrical channel, surrounded by matrix, and exposed to a gradient of angiogenic factors emanating from a parallel source channel 150a. The device can be assembled by casting Type I collagen into a PDMS mold/gasket with two parallel needles held across the casting chamber. Upon collagen polymerization, the needles can be extracted to create hollow cylindrical channels in the collagen matrix 160. Endothelial cells (ECs) can be injected into one of the channels, allowing them to attach on the interior wall and form a confluent endothelium or “parent vessel” 150a. Flow can be maintained through both channels and media containing angiogenic factors can subsequently be added to the second channel to establish a gradient across the collagen matrix to the endothelium, as illustrated in FIG. 11B.
In a first example, the impact of various pro-angiogenic factors on directed invasion and sprouting from the parent vessel is examined. Six common factors associated with angiogenesis in the literature were selected: basic fibroblast growth factor (bFGF), hepatocyte growth factor (HGF), vascular endothelial growth factor (VEGF), monocyte chemotactic protein-1 (MCP-1), sphingosine-1-phosphate (S1P), and phorbol 12-myristate 13-acetate (PMA). After these factors were added individually to the non-endothelialized source channel, phase-contrast and confocal microscopy were used to assess the organization and development of EC invasion over four days.
In connection with the examples described herein, an exemplary device in accordance with the disclosed subject matter was fabricated from two patterned layers of poly(dimethylsiloxane) (PDMS; Sylgard 184; Dow-Corning) bonded to each other and sealed against a glass substrate (e.g., as depicted in FIG. 11A). The two PDMS layers were cast or double-cast from templates originally generated using standard photolithography of SU-8 on silicon wafers. To assemble the device, the bottom layer was first sealed to a glass coverslip. The top and bottom layers were then treated with oxygen plasma, bonded together, and cured at 110° C. overnight. Assembled devices then were treated with oxygen plasma, immersed in 0.1 mg/ml poly-L-lysine (Sigma) for 1 hr, 1% glutaraldehyde (Sigma) for 1.5 hr, washed several times with ddH2O, sterilized with UV light for 15 min, and soaked in 70% ethanol for 1 hr. To mold cylindrical channels, two 400 μm diameter acupuncture needles (Hwato) were inserted into parallel grooves at the top of the bottom layer and through the middle rectangular chamber approximately 200 μm above the glass coverslip surface. Rat tail collagen type I (2.5 mg/ml; BD Biosciences) was pipetted into the middle chamber and allowed to polymerize at 37° C. for 30 min. Excess collagen was subsequently aspirated from the fluid reservoirs feeding from the middle chamber. Devices were then covered with EGM-2 (Lonza) before the needles were extracted as described herein.
Cells were cultured and seeded in accordance with the disclosed subject matter into the device described in connection with the first example. Human umbilical vein endothelial cells (HUVECs) (Lonza) and human microvascular endothelial cells (HMVECs) (Lonza) were cultured in EGM-2 and EGM-2MV, respectively.

Compound	EC invasion into the matrix (single cell or collective cell invasion)	mode of cell migration / sprouting response
CCCCCCCCCCCCCC(=O)O[C@@H]1[C@@H](C)[C@@]2(O)[C@@H](C=C(CO)C[C@]3(O)C(=O)C(C)=C[C@@H]23)[C@@H]2C(C)(C)[C@]12OC(C)=O [PMA, phorbol 12-myristate 13-acetate]	substantial directed invasion	collective cell migration that manifested itself in the form of sparse, long, multi-cellular sprouts
CCCCCCCCCCCCC/C=C/[C@@H](O)[C@@H](N)COP(=O)(O)O [S1P, sphingosine-1-phosphate]	substantial directed invasion	chemotactic migration primarily of single cells
basic fibroblast growth factor [bFGF]	did not induce significant invasion	
hepatocyte growth factor [HGF]	did not induce significant invasion	
monocyte chemotactic protein-1 [MCP-1]	did not induce significant invasion	
vascular endothelial growth factor [VEGF]	did not induce significant invasion	
